{
  "source": "patent US20240254083A1",
  "about": "“HETEROCYCLIC TRPML1 AGONISTS AND USES THEREOF” (Libra Therapeutics, Inc., priority 2021, published 2024)",
  "data": [
    {"target": "T1, hTRPML1 (Homo sapiens, UniProt Q9GZU1)", "T1 construct": "expressed in transfected cells", "T1 sequence (Q9GZU1 whole entry)": "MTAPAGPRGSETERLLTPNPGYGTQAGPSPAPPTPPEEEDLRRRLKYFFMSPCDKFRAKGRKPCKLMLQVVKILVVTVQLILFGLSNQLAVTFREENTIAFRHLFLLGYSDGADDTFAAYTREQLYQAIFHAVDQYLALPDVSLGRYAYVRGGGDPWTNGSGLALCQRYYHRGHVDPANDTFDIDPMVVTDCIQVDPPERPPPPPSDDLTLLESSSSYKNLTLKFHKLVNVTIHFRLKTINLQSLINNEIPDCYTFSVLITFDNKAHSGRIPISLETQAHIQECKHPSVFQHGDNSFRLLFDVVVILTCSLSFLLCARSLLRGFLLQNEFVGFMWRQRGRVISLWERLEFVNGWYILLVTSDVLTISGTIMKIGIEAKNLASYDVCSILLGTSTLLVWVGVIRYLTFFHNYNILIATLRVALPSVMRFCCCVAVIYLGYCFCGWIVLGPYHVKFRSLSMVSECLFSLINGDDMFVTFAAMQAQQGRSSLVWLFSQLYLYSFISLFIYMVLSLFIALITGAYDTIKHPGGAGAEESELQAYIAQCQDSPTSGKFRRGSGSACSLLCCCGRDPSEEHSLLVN", "assay": "Cellular TRPML1 assay (FLIPR, GCaMP6f calcium read-out)", "assay_type": "cell-based", "conditions": "HEK T-REx/GCaMP6f/TRPML1 cells, FLIPR TETRA, kinetic response over 300 seconds; read-out: hTRPML1 FLIPR pEC50 (converted)", "description": "Buffers and reagents • PBS (D-PBS without calcium and magnesium; EuroClone) • Trypsin (Trypsin 0.05%, EDTA 0.02% in PBS; EuroClone) • DMSO (Sigma) • Ca^2+ free Tyrode's buffer: in-house solution (130 mM NaCl, 5 mM KCl, 1 mM MgCl2, 5 mM NaHCO3, 20 mM HEPES in water at pH 7.4; sterile filtered). • Opti-MEM (Gibco) • Agonist: ML-SA1 (Sigma); stock: 60 mM in DMSO, stored at −20° C. • Blocker: ML-SI3 (in house synthesis); stock: 20 mM in DMSO, stored at −20° C.\nCell line • The final clone for the TRPML1 assay is HEK T-REx/GCaMP6f/TRPML1. • GCaMP6f is a genetically encoded calcium indicator that is stably expressed in this cell line and used as a fluorescent read-out.\nCells are seeded at 15000 cells/well either in 25 µl/well of growth medium or in 20 μl/well of Optimem+0.5% FBS without selection antibiotics. Twenty-four hours later, cells are assayed for the response to various compounds using the Ca^2+ sensitive GCaMP6f protein stably expressed in the cells as readout.\nThe experiment is performed in a 384-well format according to the following procedures for either Ca^2+ free or Optimem conditions: • Ca^2+ free condition (in absence of extracellular Ca^2+): • 24 h after seeding, pre-incubate the cells at room temperature for about 10′. • Then remove the culture medium and replace it with 20 μL of Ca^2+ free Tyrode's buffer. • Start the experiment at the FLIPR^TETRA by injecting 10 μL/w of 3× concentrated test compounds and controls in Ca^2+ free Tyrode's buffer. Monitor the kinetic response over a period of 300 seconds. • Final DMSO concentration: 0.5% • Optimem condition (in presence of extracellular Ca^2+): • 24 h after seeding, pre-incubate the cells at room temperature for about 10′. • Start the experiment at the FLIPR^TETRA by injecting 10 μL/w of 3× concentrated test compounds and controls in Ca^2+ free Tyrode's buffer. Monitor the kinetic response over a period of 300 seconds. • Final DMSO concentration: 0.5%\nData from FLIPR^TETRA measurements are analyzed with the Genedata Screener© software.", "units": {"EC50": "µM"}, "values": [
      {"compound": "CN(C)S(=O)(=O)c1ccc(S(=O)(=O)Nc2ccccc2N2CCC[C@H](OCc3ccccc3)C2)cc1", "note": "(single isomer, unassigned) [Example 26]", "EC50": "1 to 3.16"},
      {"compound": "CN(C)S(=O)(=O)c1ccc(S(=O)(=O)Nc2ccccc2N2CCC[C@@H](OCc3ccccc3)C2)cc1", "note": "(single isomer, unassigned) [Example 27]", "EC50": "1 to 3.16"},
      {"compound": "CN(C)S(=O)(=O)c1ccc(S(=O)(=O)Nc2ccccc2N2CCC[C@H](Oc3ccccc3)C2)cc1", "note": "(single isomer, unassigned) [Example 29]", "EC50": "> 3.16"},
      {"compound": "CN(C)S(=O)(=O)c1ccc(S(=O)(=O)Nc2ccccc2N2CCC[C@@H](Oc3ccccc3)C2)cc1", "note": "(single isomer, unassigned) [Example 30]", "EC50": "1 to 3.16"},
      {"compound": "CN(C)S(=O)(=O)c1ccc(S(=O)(=O)Nc2ccccc2N2CCC[C@H](COc3ccccc3)C2)cc1", "note": "(single isomer, unassigned) [Example 35]", "EC50": "1 to 3.16"},
      {"compound": "CN(C)S(=O)(=O)c1ccc(S(=O)(=O)Nc2ccccc2N2CCC[C@@H](COc3ccccc3)C2)cc1", "note": "(single isomer, unassigned) [Example 36]", "EC50": "1 to 3.16"},
      {"compound": "COCCN(C(=O)c1ccc(S(=O)(=O)N(C)C)cc1)c1ccccc1N1CCC(Oc2ccccc2)CC1", "note": "[Example 3, 4-(N,N-dimethylsulfamoyl)-N-(2-methoxyethyl)-N-(2-(4-phenoxypiperidin-1-yl)phenyl)benzamide]", "EC50": "> 3.16"},
      {"compound": "CCCN(C(=O)c1ccc(S(=O)(=O)N(C)C)cc1)c1ccccc1N1CCC(Oc2ccccc2)CC1", "note": "[Example 4, 4-(N,N-dimethylsulfamoyl)-N-(2-(4-phenoxypiperidin-1-yl)phenyl)-N-propylbenzamide]", "EC50": "1 to 3.16"},
      {"compound": "CN(C)S(=O)(=O)c1ccc(C(=O)N(c2ccccc2N2CCC(Oc3ccccc3)CC2)C2CC2)cc1", "note": "[Example 5, N-cyclopropyl-4-(N,N-dimethylsulfamoyl)-N-(2-(4-phenoxypiperidin-1-yl)phenyl)benzamide]", "EC50": "> 3.16"},
      {"compound": "CN(C)S(=O)(=O)c1ccc(S(=O)(=O)Nc2cccc(Cl)c2N2CCC(Oc3ccccn3)CC2)cc1", "note": "[Example 7, N^1-(3-chloro-2-(4-(pyridin-2-yloxy)piperidin-1-yl)phenyl)-N^4,N^4-dimethylbenzene-1,4-disulfonamide]", "EC50": "1 to 3.16"},
      {"compound": "CN(C(=O)c1ccc(S(=O)(=O)N(C)C)cc1)c1cccc(F)c1N1CCC(Oc2ccccn2)CC1", "note": "[Example 9, 4-(N,N-dimethylsulfamoyl)-N-(3-fluoro-2-(4-(pyridin-2-yloxy)piperidin-1-yl)phenyl)-N-methylbenzamide]", "EC50": "> 3.16"},
      {"compound": "CC(C)N(C(=O)c1ccc(S(=O)(=O)N(C)C)cc1)c1cccc(F)c1N1CCC(Oc2ccccn2)CC1", "note": "[Example 11, 4-(N,N-dimethylsulfamoyl)-N-(3-fluoro-2-(4-(pyridin-2-yloxy)piperidin-1-yl)phenyl)-N-isopropylbenzamide]", "EC50": "> 3.16"},
      {"compound": "CN(C)S(=O)(=O)c1ccc(C(=O)N(c2cccc(F)c2N2CCC(Oc3ccccn3)CC2)C2CCC2)cc1", "note": "[Example 12, N-cyclobutyl-4-(N,N-dimethylsulfamoyl)-N-(3-fluoro-2-(4-(pyridin-2-yloxy)piperidin-1-yl)phenyl)benzamide]", "EC50": "> 3.16"},
      {"compound": "CN(C)S(=O)(=O)c1ccc(S(=O)(=O)Nc2cc(Cl)ccc2N2CCC(Oc3ccccn3)CC2)cc1", "note": "[Example 13, N^1-(5-chloro-2-(4-(pyridin-2-yloxy)piperidin-1-yl)phenyl)-N^4,N^4-dimethylbenzene-1,4-disulfonamide]", "EC50": "1 to 3.16"},
      {"compound": "Cc1ccc(N2CCC(Oc3ccccn3)CC2)c(NS(=O)(=O)c2ccc(S(=O)(=O)N(C)C)cc2)c1", "note": "[Example 14, N^1,N^1-dimethyl-N^4-(5-methyl-2-(4-(pyridin-2-yloxy)piperidin-1-yl)phenyl)benzene-1,4-disulfonamide]", "EC50": "< 1"},
      {"compound": "CCS(=O)(=O)c1ccc(S(=O)(=O)Nc2cccc(F)c2N2CCC(Oc3ccccn3)CC2)cc1", "note": "[Example 15, 4-(ethylsulfonyl)-N-(3-fluoro-2-(4-(pyridin-2-yloxy)piperidin-1-yl)phenyl)benzenesulfonamide]", "EC50": "1 to 3.16"},
      {"compound": "Cc1ccc(N2CCC(Oc3ccccn3)CC2)c(N(C(=O)c2ccc(S(=O)(=O)N(C)C)cc2)C2CCCC2)c1", "note": "[Example 16, N-cyclopentyl-4-(N,N-dimethylsulfamoyl)-N-(5-methyl-2-(4-(pyridin-2-yloxy)piperidin-1-yl)phenyl)benzamide]", "EC50": "1 to 3.16"},
      {"compound": "Cc1ccc(S(=O)(=O)Nc2ccccc2N2CCN(C(=O)OC(C)(C)C)CC2)c(F)c1", "note": "[Example 18, tert-butyl 4-(2-((2-fluoro-4-methylphenyl)sulfonamido)phenyl)piperazine-1-carboxylate]", "EC50": "> 3.16"},
      {"compound": "Cc1ccc(C)c(S(=O)(=O)Nc2ccccc2N2CCN(C(=O)OC(C)(C)C)CC2)c1", "note": "[Example 20, tert-butyl 4-(2-((2,5-dimethylphenyl)sulfonamido)phenyl)piperazine-1-carboxylate]", "EC50": "> 3.16"},
      {"compound": "CC(C)(C)OC(=O)N1CCN(c2ccccc2NS(=O)(=O)c2ccc(OC(F)(F)F)cc2)CC1", "note": "[Example 21, tert-butyl 4-(2-((4-(trifluoromethoxy)phenyl)sulfonamido)phenyl) piperazine-1-carboxylate]", "EC50": "> 3.16"},
      {"compound": "CN(C)S(=O)(=O)c1ccc(S(=O)(=O)Nc2ccccc2N2CCCCCCC2)cc1", "note": "[Example 24, N1-(2-(azocan-1-yl)phenyl)-N4,N4-dimethylbenzene-1,4-disulfonamide]", "EC50": "1 to 3.16"},
      {"compound": "CN(C)S(=O)(=O)c1ccc(S(=O)(=O)Nc2cccc(F)c2N2CCC(C)(c3ccccc3)CC2)cc1", "note": "[Example 37, N^1-(3-fluoro-2-(4-methyl-4-phenylpiperidin-1-yl)phenyl)-N^4,N^4-dimethylbenzene-1,4 disulfonamide]", "EC50": "< 1"},
      {"compound": "Cc1ccc(S(=O)(=O)Nc2ccccc2N2CCN(C(=O)Oc3ccccc3)CC2)cc1C", "note": "[Example 39, phenyl 4-(2-((3,4-dimethylphenyl)sulfonamido)phenyl) piperazine-1-carboxylate]", "EC50": "> 3.16"},
      {"compound": "Cc1ccc(S(=O)(=O)Nc2ccccc2N2CCN(C(=O)CC(C)(C)C)CC2)cc1C", "note": "[Example 41, N-(2-(4-(3,3-dimethylbutanoyl)piperazin-1-yl)phenyl)-3,4-dimethylbenzenesulfonamide]", "EC50": "> 3.16"},
      {"compound": "CC(C)(C)CC(=O)N1CCN(c2ccccc2NS(=O)(=O)c2ccc(C(F)(F)F)cc2)CC1", "note": "[Example 42, N-(2-(4-(3,3-dimethylbutanoyl)piperazin-1-yl)phenyl)-4-(trifluoromethyl)benzenesulfonamide]", "EC50": "> 3.16"},
      {"compound": "CN(C)S(=O)(=O)c1ccc(S(=O)(=O)Nc2cccc(F)c2N2CCC(Oc3ccc(C(F)(F)F)cn3)CC2)cc1", "note": "[Example 43, N^1-(3-fluoro-2-(4-((5-(trifluoromethyl)pyridin-2-yl)oxy)piperidin-1-yl)phenyl)-N^4,N^4-dimethylbenzene-1,4-disulfonamide]", "EC50": "< 1"},
      {"compound": "CN(C)S(=O)(=O)c1ccc(S(=O)(=O)Nc2cccc(F)c2N2CCC(Oc3ccc(Cl)cn3)CC2)cc1", "note": "[Example 44, N^1-(2-(4-((5-chloropyridin-2-yl)oxy)piperidin-1-yl)-3-fluorophenyl)-N^4,N^4-dimethylbenzene-1,4-disulfonamide]", "EC50": "< 1"},
      {"compound": "CN(C)S(=O)(=O)c1ccc(S(=O)(=O)Nc2cccc(F)c2N2CCC(Oc3ncc(Cl)cc3F)CC2)cc1", "note": "[Example 45, N^1-(2-(4-((5-chloro-3-fluoropyridin-2-yl)oxy)piperidin-1-yl)-3-fluorophenyl)-N^4,N^4-dimethylbenzene-1,4-disulfonamide]", "EC50": "< 1"}
    ]}
  ]
}
